In patent US20180221343A1, “PHARMACEUTICAL COMPOSITION FOR PREVENTING OR TREATING MACULAR DEGENERATION” (KOREA RESEARCH INSTITUTE OF CHEMICAL TECHNOLOGY, priority 2011, published 2018):

Columns and labels:
[1] = system: retinal angiogenesis; assay: Laser-induced retinal damage model in micro pigs, fluorescein intensity; format: in vivo, Yutacan Micro pigs
Experimental: The tests were performed by using Yutacan Micro pigs (3 kg, male) as animal models having retinal damage (15 pigs for the experiment group). The retinal macular degeneration models were established according to the same procedures as in Brown Norway rats of Example 5. The eye drop formulation (100 μl, 0.9 mg/ml) prepared according to the same procedures as in Example 2 was administered four times per day for 2 weeks. For vitreous injection, the solution of the same compound (20 μl, 0.3 mg/ml) was injected into the vitreous humor once. 2 weeks after the administrations, 1% fluorescein was intravenously injected so as to observe the laser-induced damage site; and the effects of the compound of the present invention, i.e., (2R,3R,4S)-6-amino-4-[N-(4-chlorophenyl)-N-(1H-imidazol-2-ylmethyl)amino]-3-hydroxy-2-methyl-2-dimethoxymethyl-3,4-dihydro-2H-1-benzopyran. The evaluations quantifying the photographs of FIG. 9 were performed by using the Image J (NIH, USA) program and the results thereof were shown in FIG. 10.

[2] = Retinal delivery of eye drop formulation (levels in ocular tissues and plasma); format: in vivo, Rats; settings: eye drop 50 μl of Formulation Example 1
Experimental: We evaluated whether the eye drop formulation containing (2R,3R,4S)-6-amino-4-[N-(4-chlorophenyl)-N-(1H-imidazol-2-ylmethyl)amino]-3-hydroxy-2-methyl-2-dimethoxymethyl-3,4-dihydro-2H-1-benzopyran is penetrated through the cornea and then delivered to the retina. Rats (8 weeks old) were used in the test; and the eye drop formulation (50 μl) prepared in the following Formulation Example 1 was dropped on each rat's eye.

[3] = system: corneal angiogenesis; assay: Inhibitory effects against corneal angiogenesis, subconjunctival injection and eye drop-administration; format: in vivo, Sprague Dawley rats; settings: subconjunctival injection 20 μl plus eye drop 50 μl; KR 0.3 mg/ml, Avastin 10 mg/ml
Experimental: The tests were performed by using Sprague Dawley rats (8 weeks old, male) as animals having corneal damage (15 rats for the experiment group; and 1 rat for normal group, respectively). The corneal damage was induced by applying a cotton swab coated with silver nitrate to the surface of the rat corneas, as as to induce a damage having a diameter of 2 mm in the central cornea. On the third day after inducing the corneal damages, we confirmed the establishment of corneal angiogenesis-inducing models and then subconjunctivally injected a solution (20 μl) prepared by dissolving the compound of Preparation Example 23, i.e., (2R,3R,4S)-6-amino-4-[N-(4-chlorophenyl)-N-(1H-imidazol-2-ylmethyl)amino]-3-hydroxy-2-methyl-2-dimethoxymethyl-3,4-dihydro-2H-1-benzopyran (KR-31831) in phosphate buffered saline (PBS) containing 10% PEG 400, in the concentration of 0.3 mg/ml. […] The evaluations quantifying the photographs of FIG. 1 were performed by using the Image J (NIH, USA) program and the results thereof were shown in FIG. 2.
Except for performing both the subconjunctival injection and the eye drop-administration of (2R,3R,4S)-6-amino-4-[N-(4-chlorophenyl)-N-(1H-imidazol-2-ylmethyl)amino]-3-hydroxy-2-methyl-2-dimethoxymethyl-3,4-dihydro-2H-1-benzopyran and Avastin, the inhibitory effects against angiogenesis were evaluated according to the same manners as in Example 1. […]

- level in Aqueous humor ([2]; 30 minutes): 1250 ng/mL
- level in Retina ([2]; 30 minutes): 846 ng/mL
- level in Vitreous humor ([2]; 30 minutes): 195 ng/mL
- level in Aqueous humor ([2]; 120 minutes): 827 ng/mL
- level in Plasma ([2]; 120 minutes): 0.9 ng/mL
- level in Retina ([2]; 120 minutes): 225 ng/mL
- level in Vitreous humor ([2]; 120 minutes): 194 ng/mL
Compound: COC(OC)[C@]1(C)Oc2ccc(N)cc2[C@H](N(Cc2ncc[nH]2)c2ccc(Cl)cc2)[C@H]1O [KR-31831, (2R,3R,4S)-6-amino-4-[N-(4-chlorophenyl)-N-(1H-imidazol-2-ylmethyl)amino]-3-hydroxy-2-methyl-2-dimethoxymethyl-3,4-dihydro-2H-1-benzopyran]
- intensity at laser-induced damage site (non-drug administered control group = 1) ([1]; eye drop formulation 100 μl, 0.9 mg/ml, 4 times per day, 2 weeks): 0.46±0.17
- intensity at laser-induced damage site (non-drug administered control group = 1) ([1]; vitreous injection 20 μl, 0.3 mg/ml, once, 2 weeks after): 0.36±0.14
- angiogenesis in comparison with the angiogenesis (100%) of the control group [3]: 25.1±10.8%
